Experimental data: patent publication US20160361418A1, “COMPOSITION FOR PREVENTION OR TREATMENT OF TREATMENT-RESISTANT CANCER” (priority 2014, published 2016)
Entries after “also recorded” stand apart in the source; their conditions may differ. Blank lines part the entries; values can stand above or below the compound they belong to.

How the values were obtained:
157NS cells = test: Photosensitivity of cancer stem cells to ALA-PDT (WST-8 cell viability); assay type: cell-based, human; details: sphere type relative to non-sphere type
Experimental: (§1) Specifically, three types of brain tumor glioma stem cell lines (MD13, MD30, and 157NS cells), which had been isolated and established from brain tumor patients, were used, and an experiment was carried out to verify the photosensitivity of these cells to ALA-PDT. In preparation for the experiment, these cells were first cultured in a D-MEM/F12 culture solution containing 10% fetal calf serum (FCS) and in a D-MEM/F12 culture solution containing no FCS (containing L-glutamine, heparin, B27, EGF, and bFGF), and the shapes of the cells were then examined.
(§2) Brain tumor stem cells (MD13, MD30, and 157NS cells), which had grown to a sphere type and a non-sphere type, were treated with trypsin, and thereafter, the resulting cells were each incubated at a density of 1.0×10^6 cells/ml, together with 0.3 mM ALA, for 4 hours. Thereafter, a 405-nm laser light was applied to the cells. After the cells had been cultured for 7 days, the cell viability was measured according to a viable cell count measurement method (WST-8 assay) using water soluble tetrazolium salts as a coloring reagent.
(§3) The sphere type cells (FIG. 2B) cultured in the D-MEM/F12 culture solution containing no FCS (containing L-glutamine, heparin, B27, EGF, and bFGF) had higher sensitivity to ALA-PDT, than the non-sphere type cells (FIG. 2A) cultured in the D-MEM/F12 culture solution containing 10% FCS.

MD13 cells = test: as above; assay type: cell-based, human; details: sphere type relative to non-sphere type
Experimental: as §1, §2, §3

MD30 cells = test: as above; assay type: cell-based, human; details: sphere type relative to non-sphere type
Experimental: as §1, §2, §3

[1] = metabolized in a living body; cited from earlier work
HeLa cells = test: Multiple-dose ALA-PDT on HeLa cells and therapy-resistant HeLa cells (WST8 cell viability); assay type: cell-based, human
Experimental: HeLa cells (human-derived uterine cervix cancer cell line; 1×10^5 cells) were seeded on a 60-mm dish, and then cultured for 24 hours. Thereafter, an anticancer agent was administered to the culture solution. […] The surviving cells (5×10^3 cells) were seeded on a 96-well plate. In the present example, these cells surviving 72 hours after administration of the anticancer agent were used as therapy-resistant cancer.
Twenty-four hours after the seeding of the surviving cells on the 96-well plate, 5-aminolevulinic acid hydrochloride (ALA) was administered to the cells, and the resulting cells were then cultured for 4 hours. Thereafter, 631-nm LED light was applied to the cells to a total dose of 60 J/cm^2, one to three times. In the case of multiple-dose light irradiation, the interval between light irradiations was set at 2 hours. Twenty-four hours after the light irradiation, the resulting cells were washed with PBS twice, and the cell viability was then measured by the WST8 assay.
The longitudinal axis in each figure indicates the percentage of cell viability in the experiment groups, while the cell viability is set at 100% when the experiment was carried out under the same conditions as those described above with the exception that ALA was not administered.

[2] = tested on: brain tumor cell line A172; test: Photosensitivity of brain tumor cells to ALA-PDT (WST-8 cell viability); assay type: cell-based; details: 0.3 mM ALA 4 hours, 405-nm laser light, WST-8 after 7 days
Experimental: (§4) The brain tumor cell line A172 (purchased from American Type Culture Collection) was cultured in a D-MEM/F12 culture solution containing no FCS (containing L-glutamine, heparin, B27, EGF, and bFGF). As a result, the cells formed a sphere similar to stem cells. […] The cells, which had grown to a sphere type and a non-sphere type, were treated with trypsin. Subsequently, the cells were each incubated at a density of 1.0×10^6 cells/ml, together with 0.3 mM ALA, for 4 hours, and thereafter, a 405-nm laser light was applied to the cells. After the cells had been further cultured for 7 days, the cell viability was measured by a WST-8 assay in the same manner as that of Example 2.

[3] = tested on: Human glioblastoma astrocytoma U87MG cells; test: ALA-PDT with Lapatinib, cell viability by MTT method; assay type: cell-based; details: LED 635 nm 12 J/cm^2
Experimental: Human glioblastoma astrocytoma U87MG cells (10^6 cells) were suspended in DMEM (2% FBS), and thereafter, 10 mM ALA alone was added to the suspension, or 10 mM ALA was combined with Lapatinib in a concentration from 1 nM to 300 μM, and the combination was then added to the suspension. The obtained mixture was cultured at 37° C. for 4 hours. Thereafter, the cells were irradiated with LED having a peak at 635 nm (12 J/cm^2), and the cell viability was then measured by an MTT method. It is to be noted that the MTT method has the same measurement principle as that of the WST-8 assay, and that this is a colorimetric determination method for measuring an enzymatic activity of reducing MTT to a formazan pigment (violet).

[4] = tested on: Brain tumor stem cells (MD13, MD30, and 157NS cells); test: Photosensitivity of cancer stem cells to ALA-PDT, summary over the three lines; assay type: cell-based, human; details: 0.3 mM ALA 4 hours; 405-nm laser light
Experimental: as §1, §2, §3

[5] = tested on: brain tumor cell line A172; test: Photosensitivity of brain tumor cells to ALA-PDT (colony formation assay); assay type: cell-based; details: 0.3 mM ALA 4 hours, 405-nm laser light, colonies after 14 days
Experimental: as §4
Moreover, 500 cells were collected from A172 cells, on which ALA-PDT had been performed, and the cells were then seeded on a D-MEM agar medium containing 10% FCS and an antibiotic, followed by performing a culture for 14 days. Thereafter, the cultured cells were treated with Trypan blue containing 10% formalin, so that the cell colonies were immobilized and stained. The number of colonies each consisting of 50 or more cells was counted using a stereoscopic microscope.
In the aforementioned WST-8 assay, the cell viability can be measured based on a reduction reaction using mitochondrial NAD(P)H. On the other hand, in the colony formation assay, the proliferation ability of cells can be measured. […]

ABCG2 [6] = biological target: T1, ABCG2 (Homo sapiens, UniProt Q9UNQ0); test: Inhibition of transport function of ABCG2 (Hoechst 33342 excretion, Flp-In-293/ABCG2 cells, FACS); assay type: cell-based; design: expressed in transfected cells; host or cells: Flp-In-293 cells (Flp-In-293/ABCG2), with Flp-In-293/Mock as control; details: inhibitor 1 nM to 100 μM, 5 μg/mL Hoechst 33342, 90 minutes
T1 sequence (Q9UNQ0 1-655): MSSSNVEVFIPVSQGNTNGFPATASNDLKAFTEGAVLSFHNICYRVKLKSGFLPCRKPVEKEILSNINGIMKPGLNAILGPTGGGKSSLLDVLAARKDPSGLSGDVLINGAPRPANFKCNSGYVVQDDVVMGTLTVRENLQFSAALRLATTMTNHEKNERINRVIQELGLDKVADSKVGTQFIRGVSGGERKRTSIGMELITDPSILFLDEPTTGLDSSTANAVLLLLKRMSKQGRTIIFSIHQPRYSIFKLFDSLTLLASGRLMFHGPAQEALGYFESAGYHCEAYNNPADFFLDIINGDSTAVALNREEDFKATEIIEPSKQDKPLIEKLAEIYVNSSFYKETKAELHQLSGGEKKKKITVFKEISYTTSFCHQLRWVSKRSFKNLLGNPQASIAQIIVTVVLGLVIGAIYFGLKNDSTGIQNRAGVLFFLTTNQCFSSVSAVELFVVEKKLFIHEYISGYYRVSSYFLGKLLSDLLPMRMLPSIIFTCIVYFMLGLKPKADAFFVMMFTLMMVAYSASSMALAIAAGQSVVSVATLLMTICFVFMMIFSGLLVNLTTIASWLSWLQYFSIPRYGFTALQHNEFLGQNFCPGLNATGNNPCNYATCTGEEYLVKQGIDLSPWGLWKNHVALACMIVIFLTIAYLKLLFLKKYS
Experimental: In the present experiment, using Hoechst 33342 and a plurality of tyrosine kinase inhibitors, an experiment was carried out to screen for an inhibitor of ABCG2.
Specifically, using Erlotinib, Gefitinib, Lapatinib, Imatinib, Nilotinib and Dasatinib as tyrosine kinase inhibitors, and also using an L-type calcium channel inhibitor, Verapamil, as a control, screening was carried out for inhibition of the transport function of ABCG2.
Flp-In-293 cells (Flp-In-293/ABCG2 cells), which express human ABCG2, were cultured together with Hoechst 33342 as a substrate of ABCG2 and the aforementioned tyrosine kinase inhibitors for a certain period of time. Thereafter, the level of Hoechst 33342 accumulated in individual cells was measured using FACS (Beckman Coulter). […] Specific experimental procedures are as follows.
Flp-In-293/Mock and Flp-In-293/ABCG2 were each washed with PBS (phosphate buffered saline) twice, and were then peeled using Trypsin-EDTA. 10^6 cells were suspended in a DMEM medium (2% FBS). Subsequently, 5 μg/mL Hoechst 33342 (Invitrogen) alone was added to the suspension, or 5 μg/mL Hoechst 33342 was combined with various types of inhibitors in concentrations of 1 nM to 100 μM, and the combination was then added to the suspension. The obtained mixture was cultured at 37° C. for 90 minutes. After completion of the culture, the cultured cells were washed with cold PBS (2% FBS), and were then suspended again in cold PBS (2% FBS). Thereafter, intracellular fluorescence intensity was measured using FACS (Beckman Coulter). 50,000 cells were measured for a single measurement. Hoechst 33342 accumulated in the cells was excited with UV laser, the fluorescence at […] was then detected, and the mean fluorescence intensity (MFI) of the fluorescence of the measured cells was then calculated. Based on the obtained results, the inhibitory percentage against ABCG2 was calculated.
The MFI values of Flp-In-293/Mock cells and Flp-In-293/ABCG2 cells upon addition of Hoechst 33342 alone were set at 100% and 0%, respectively. […]

[7] = tested on: Human glioblastoma astrocytoma U87MG cells; test: Intracellular accumulation of PpIX biosynthesized from ALA (FACS fluorescence); assay type: cell-based; details: 4 hours; for fluorescence intensity / intracellular accumulation of PpIX: 2 mM ALA with inhibitor 1 nM to 100 μM
Experimental: Human glioblastoma astrocytoma U87MG cells were cultured together with 2 mM ALA and Lapatinib in various concentrations for 4 hours, and thereafter, the fluorescence intensity (MFI value) of PpIX, which was biosynthesized from ALA and was accumulated in the cells during the culture, was measured using FACS (Beckman Coulter). Specific experimental procedures are as follows.
U87MG cells were washed with PBS twice, and were then peeled using Trypsin-EDTA. 10^6 cells were suspended in a low-serum DMEM medium (2% FBS). Subsequently, 2 mM ALA alone was added to the suspension, or 2 mM ALA was combined with Lapatinib or Gefitinib in a concentration from 1 nM to 100 μM, and the combination was then added to the suspension. Thereafter, the obtained mixture was cultured at 37° C. for 4 hours. After completion of the culture, the cultured cells were washed with cold PBS (2% FBS), and were then suspended again in cold PBS (2% FBS). Thereafter, intracellular fluorescence intensity was measured using FACS (Beckman Coulter). 50,000 cells were measured for a single measurement. PpIX accumulated in the cells was excited with UV laser (325 nm), the fluorescence at 575 nm was then detected, and the mean fluorescence intensity (MFI) of the fluorescence of the measured cells was then calculated. Based on the obtained results, intracellular accumulation of PpIX was relatively calculated, and inhibition of the PpIX transport of ABCG2 by Lapatinib or Gefitinib was estimated.

ABCG2 [8] = biological target: T1, ABCG2; details: from earlier publication (Pharm Res. 26(2), 449-458, 2009); cited from earlier work

Compound: NCC(=O)CCC(=O)O [ALA, 5-aminolevulinic acid]
ALA-PDT sensitivity (157NS cells): 1.8
ALA-PDT sensitivity (MD13 cells): 2.4
ALA-PDT sensitivity (MD30 cells): 1.9
time until ALA is excreted from the body [1]: ≤ 48 h
cell viability in relation to the number of light irradiations (HeLa cells; 125 to 250 μM ALA, 631-nm LED total 60 J/cm^2 in one to three irradiations): decreased depending on the number of light irradiations
ALA concentration at which the cell viability was decreased (HeLa cells; HeLa with no anticancer agent or surviving Adriamycin, Cisplatin, Etoposide or 5-Fluorouracil, 631-nm LED total 60 J/cm^2, 24 hours after): ≥ 125 µM
photosensitivity to ALA-PDT of sphere type versus non-sphere type cells (cell viability) [2]: higher photosensitivity than the non-sphere type cells
cells died ([3]; 10 mM ALA alone 4 hours): approximately 50%
sensitivity to ALA-PDT of sphere type cells relative to non-sphere type cells [4]: 2 times
photosensitivity to ALA-PDT of sphere type versus non-sphere type cells (colony-forming ability) [5]: significantly higher photosensitivity than the non-sphere type cells

Compound: C#Cc1cccc(Nc2ncnc3cc(OCCOC)c(OCCOC)cc23)c1 [Erlotinib, N-(3-ethynylphenyl)-6,7-bis(2-methoxyethoxy)-4-quinazolinamine]
inhibition of ABCG2 (inhibition of the excretion of Hoechst 33342), comparison among inhibitors (ABCG2 [6]): ABCG2-inhibitory ability almost equivalent to each other

Compound: COc1cc2ncnc(Nc3ccc(F)c(Cl)c3)c2cc1OCCCN1CCOCC1 [Gefitinib, N-(3-chloro-4-fluoro-phenyl)-7-methoxy-6-(3-morpholin-4-ylpropoxy)quinazolin-4-amine]
fluorescence intensity / intracellular accumulation of PpIX [7]: intracellular accumulation of PpIX was observed, but the amount of PpIX accumulated was not as large as that in the case of inhibition by Lapatinib
inhibition of ABCG2 (ABCG2 [8]): effectively inhibits ABCG2
inhibition of ABCG2 (inhibition of the excretion of Hoechst 33342), comparison among inhibitors (ABCG2 [6]): ABCG2-inhibitory ability almost equivalent to each other; also recorded: weaker than that of Lapatinib

inhibition of ABCG2 (inhibition of the excretion of Hoechst 33342), comparison among inhibitors (ABCG2 [6]): inhibits ABCG2 most strongly
Compound: CS(=O)(=O)CCNCc1ccc(-c2ccc3ncnc(Nc4ccc(OCc5cccc(F)c5)c(Cl)c4)c3c2)o1 [Lapatinib, n-[3-chloro-4-[(3-fluorophenyl)methoxy]phenyl]-6-[5-[(2-methylsulfonylethylamino)methyl]-2-furyl]quinazolin-4-amine]
fluorescence intensity / intracellular accumulation of PpIX [7]: increased
concentration region in which ABCG2 was significantly inhibited ([7]; 2 mM ALA): ≥ 10 nM
sensitivity of the cells to LED irradiation ([3]; 10 mM ALA with Lapatinib 1 nM to 300 μM): increased in a concentration-dependent manner
